Target: 5HT7 receptors (Homo sapiens (Human), UniProt P34969)
Assay: Radiolabel Binding Studies for Serotonin 5-HT7 Receptors, Method 2 ([3H]-5HT competition; Ki and percent inhibition at 10 μM)
Conditions: radioligand competition binding
Method: Radiolabel Binding Studies for Serotonin 5-HT7 Receptors, Method 2:
A solution of the compound of the disclosure to be tested is prepared as a 1-mg/ml stock in Assay Buffer or DMSO according to its solubility. A similar stock of the reference compound chlorpromazine is also prepared as a positive control. Eleven dilutions (5×assay concentration) of the compound of the disclosure and chlorpromazine are prepared in the Assay Buffer by serial dilution to yield final corresponding assay concentrations ranging from 10 pM to 10 μM.
A stock concentration of 5 nM [^3H]-5-Hydroxytryptamine ([^3H]-5HT) is prepared in 50 mM Tris-HCl, 10 mM MgCl2, 1 mM EDTA, pH 7.4 (Assay Buffer). Aliquots (50 μl) of radioligand are dispensed into the wells of a 96-well plate containing 100 μl of Assay Buffer. Duplicate 50-μl aliquots of the compound of the disclosure test and chlorpromazine positive control reference compound serial dilutions are added.
Membrane fractions of cells expressing recombinant 5HT7 receptors (50 L) are dispensed into each well. The membranes are prepared from stably transfected cell lines expressing 5HT7 receptors cultured on 10-cm plates by harvesting PBS-rinsed monolayers, resuspending and lysing in chilled, hypotonic 50 mM Tris-HCl, pH 7.4, centrifuging at 20,000×g, decanting the supernatant and storing at −80° C.; the membrane preparations are resuspended in 3 ml of chilled Assay Buffer and homogenized by several passages through a 26 gauge needle before using in the assay.
The 250-μl reactions are incubated at room temperature for 1.5 hours, then harvested by rapid filtration onto 0.3% polyethyleneimine-treated, 96-well filter mats using a 96-well Filtermate harvester. Four rapid 500-μl washes are performed with chilled Assay Buffer to reduce non-specific binding. The filter mats are dried, then scintillant is added to the filters and the radioactivity retained on the filters is counted in a Microbeta scintillation counter.
Raw data (dpm) representing total radioligand binding (i.e., specific+non-specific binding) are plotted as a function of the logarithm of the molar concentration of the competitor (i.e., test or reference compound). Non-linear regression of the normalized (i.e., percent radioligand binding compared to that observed in the absence of test or reference compound) raw data is performed in Prism 4.0 (GraphPad Software) using the built-in three parameter logistic model describing ligand competition binding to radioligand-labeled sites:
where bottom equals the residual radioligand binding measured in the presence of 10 μM reference compound (i.e., non-specific binding) and top equals the total radioligand binding observed in the absence of competitor. The log IC50 (i.e., the log of the ligand concentration that reduces radioligand binding by 50%) is thus estimated from the data and used to obtain the Ki by applying the Cheng-Prusoff approximation:
where [ligand] equals the assay radioligand concentration and KD equals the affinity constant of the radioligand for the target receptor.
Compounds of the disclosure are also screened at a single concentration of 10 μM using the same method described for the Radiolabel Binding Studies for Serotonin 5HT7 receptors to determine the percent inhibition of [^3H]-5HT binding.

Chain of 5HT7 receptors (P34969 whole entry): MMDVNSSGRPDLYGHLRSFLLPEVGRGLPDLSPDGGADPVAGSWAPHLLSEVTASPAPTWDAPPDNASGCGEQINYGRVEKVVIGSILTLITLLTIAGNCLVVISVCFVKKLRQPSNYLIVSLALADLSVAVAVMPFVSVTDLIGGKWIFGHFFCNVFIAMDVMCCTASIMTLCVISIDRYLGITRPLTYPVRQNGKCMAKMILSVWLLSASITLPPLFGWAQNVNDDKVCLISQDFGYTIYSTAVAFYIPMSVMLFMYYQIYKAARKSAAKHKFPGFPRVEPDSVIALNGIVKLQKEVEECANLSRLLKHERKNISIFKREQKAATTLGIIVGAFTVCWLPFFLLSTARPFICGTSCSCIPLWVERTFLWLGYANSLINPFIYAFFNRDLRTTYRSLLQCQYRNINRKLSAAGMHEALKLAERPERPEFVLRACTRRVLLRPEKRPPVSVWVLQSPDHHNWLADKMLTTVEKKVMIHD

Point of comparison: `Cc1ccc(N2CCN(CCC3CC4(CCN(S(=O)(=O)C5CCOCC5)CC4)C(=O)O3)CC2)cc1` (centres unmarked) [Example 13], IC50 96 nM. Against it:
- Cc1ccc(N2CCN(CCC3CC4(CCN(S(=O)(=O)c5ccc(Cl)cc5)CC4)C(=O)O3)CC2)cc1 (centres unmarked) [Example 12] — within 1.5-fold, 108 nM
- Cc1ccc(N2CCN(CCC3CC4(CCN(Cc5ccccc5)CC4)C(=O)O3)CC2)cc1 (centres unmarked) [Entry 1] — 5.3-fold lower, 18 nM
- CS(=O)(=O)N1CCC2(CC1)CC(CCN1CCN(c3ccc(O)cc3N3CCOCC3)CC1)OC2=O (centres unmarked) [Example 21] — within 1.5-fold, 75 nM
- Cc1ccc(N2CCN(CCC3CC4(CCN(S(C)(=O)=O)CC4)C(=O)O3)CC2)c(N2CCOCC2)c1 (centres unmarked) [Example 20] — within 1.5-fold, 67 nM
- CNC(=O)N1CCC2(CC1)CC(CCN1CCN(c3ccc(C)cc3)CC1)OC2=O (centres unmarked) [Entry 5] — within 1.5-fold, 102 nM
- Cc1ccc(N2CCN(CCC3CC4(CCNCC4)C(=O)O3)CC2)cc1 (centres unmarked) [Entry 2] — 1.6-fold higher, 149 nM
- COC(=O)N1CCC2(CC1)CC(CCN1CCN(c3ccc(C)cc3)CC1)OC2=O (centres unmarked) [Entry 3] — within 1.5-fold, 81 nM
- CS(=O)(=O)N1CCC2(CC1)CC(CCN1CCN(c3ccc(C#N)cc3N3CCOCC3)CC1)OC2=O (centres unmarked) [Entry 19] — 4.8-fold higher, 461 nM
- Cc1nc2cccc(N3CCN(CCC4CC5(CCN(S(C)(=O)=O)CC5)C(=O)O4)CC3)c2[nH]1 (centres unmarked) [Entry 8] — 2.1-fold lower, 46 nM
- Cc1ccc(N2CCN(CCC3CC4(CCN(S(C)(=O)=O)CC4)C(=O)O3)CC2)cc1 (centres unmarked) [Entry 6] — within 1.5-fold, 93 nM
- Cc1ccc(N2CCN(CCC3CC4(CCN(S(=O)(=O)c5ccccc5)CC4)C(=O)O3)CC2)cc1 (centres unmarked) [Entry 10] — 1.5-fold lower, 64 nM
- CS(=O)(=O)N1CCC2(CC1)CC(CCN1CCN(c3ccc(O)cc3)CC1)OC2=O (centres unmarked) [Example 22] — 2.1-fold higher, 202 nM
- CS(=O)(=O)N1CCC2(CC1)CC(CCN1CCN(c3ccc(Cl)cc3)CC1)OC2=O (centres unmarked) [Entry 9] — 3.2-fold higher, 303 nM
- CC(=O)N1CCC2(CC1)CC(CCN1CCN(c3ccc(C)cc3)CC1)OC2=O (centres unmarked) [Entry 4] — within 1.5-fold, 122 nM
- CS(=O)(=O)N1CCC2(CC1)CC(CCN1CCN(c3ccccc3N3CCOCC3)CC1)OC2=O (centres unmarked) [Entry 7] — 2.8-fold lower, 34 nM
- COc1ccc(S(=O)(=O)N2CCC3(CC2)CC(CCN2CCN(c4ccc(C)cc4)CC2)OC3=O)cc1 (centres unmarked) [Entry 11] — within 1.5-fold, 77 nM

From patent US20250282790A1 (Temple University-Of The Commonwealth System of Higher …, priority 2016, published 2025)
